Where a chain is given by its changes, count along the chain named.
Columns and labels:
Htc10-LBD [1] = biological target: T1, Htc10-LBD (Vreelandella titanicae, UniProt L9UCI1); conditions: Biolog plate screen, est. 3-6 mM; binder
T1 sequence (L9UCI1 48-325): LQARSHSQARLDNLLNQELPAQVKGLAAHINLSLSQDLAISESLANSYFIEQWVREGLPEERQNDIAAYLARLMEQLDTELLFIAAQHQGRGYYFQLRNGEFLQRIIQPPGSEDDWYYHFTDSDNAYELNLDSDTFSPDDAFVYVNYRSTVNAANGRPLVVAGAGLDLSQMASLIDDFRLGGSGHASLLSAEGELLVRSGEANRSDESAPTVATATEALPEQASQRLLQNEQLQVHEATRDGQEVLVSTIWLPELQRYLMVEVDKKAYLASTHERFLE

Htc10-LBD [2] = biological target: T1, Htc10-LBD; assay: biochemical; conditions: read-out: ΔTm (ºC) 10 mM solution
Htc10-LBD [3] = biological target: T1, Htc10-LBD; assay: biochemical
Htc10-LBD [4] = biological target: T2, Htc10-LBD (Vreelandella titanicae, UniProt L9UCI1, D179A/N177A/Y141F); assay: isothermal titration calorimetry; format: binding
T2 sequence (L9UCI1 48-325 Y141F/N177A/D179A): T1 sequence (L9UCI1 48-325) with Y94F, N130A, D132A

Htc10-LBD [5] = biological target: T3, Htc10-LBD (Vreelandella titanicae, UniProt L9UCI1, Y141F); assay: isothermal titration calorimetry; format: binding
T3 sequence (L9UCI1 48-325 Y141F): T1 sequence (L9UCI1 48-325) with Y94F

Htc10-LBD [6] = biological target: T1, Htc10-LBD; assay: isothermal titration calorimetry; format: binding

SMILES | ΔTm (ºC) Biolog plates (Htc10-LBD [1]) | ΔTm at 10000 µM (Htc10-LBD [2]) | also measured
O=c1[nH]cnc2c1ncn2[C@H]1C[C@H](O)[C@@H](CO)O1 [2-deoxy-inosine] | 6.5 degC |  | 
O=c1[nH]c(=O)c2nc[nH]c2[nH]1 [Xanthine] | 2.5 degC | -8 °C | 
O=c1[nH]cnc2nc[nH]c12 [hypoxanthine] | 8.0 degC | 16 °C | ΔTm at 500 µM (Htc10-LBD [3]; read-out: ΔTm (ºC) hyp): 10.6 °C; Kd (Htc10-LBD [4]): 140 ± 9 µM; Kd (Htc10-LBD [5]): 13.9 ± 0.9 µM; Kd (Htc10-LBD [6]): 2.5 ± 0.3 µM
Cc1cn([C@H]2C[C@H](O)[C@@H](CO)O2)c(=O)[nH]c1=O [Thymidine] | 2.0 degC | 0 °C | 
Cc1c[nH]c(=O)[nH]c1=O [Thymine] | 2.0 degC | 1.7 °C | 
O=c1cc[nH]c(=O)[nH]1 [Uracil] |  | 3 °C | 
Nc1nc2nc[nH]c2c(=O)[nH]1 [guanine] |  | 6 °C | ΔTm at 600 µM (Htc10-LBD [3]; read-out: ΔTm (ºC) gua): 5.2 °C; Kd (Htc10-LBD [4]): 118 ± 9 µM; Kd (Htc10-LBD [5]): 25 ± 2 µM; Kd (Htc10-LBD [6]): 7 ± 0.6 µM
O=c1[nH]cnc2c1ncn2[C@@H]1O[C@H](CO)[C@@H](O)[C@H]1O [Inosine] |  | 3 °C | 
Nc1nc2c(ncn2[C@@H]2O[C@H](CO)[C@@H](O)[C@H]2O)c(=O)[nH]1 [Guanosine] | 2.5 degC | 0.5 °C | 
